Drawing on patent US7259161B2, “Compositions useful as inhibitors of JAK and other protein kinases” (Vertex Pharmaceuticals Incorporated, priority 2002, dated 2007), this text covers Ki for two molecules.

In one test the target is T1, JAK3 (Homo sapiens, UniProt P52333).
T1 sequence (P52333 1-1124): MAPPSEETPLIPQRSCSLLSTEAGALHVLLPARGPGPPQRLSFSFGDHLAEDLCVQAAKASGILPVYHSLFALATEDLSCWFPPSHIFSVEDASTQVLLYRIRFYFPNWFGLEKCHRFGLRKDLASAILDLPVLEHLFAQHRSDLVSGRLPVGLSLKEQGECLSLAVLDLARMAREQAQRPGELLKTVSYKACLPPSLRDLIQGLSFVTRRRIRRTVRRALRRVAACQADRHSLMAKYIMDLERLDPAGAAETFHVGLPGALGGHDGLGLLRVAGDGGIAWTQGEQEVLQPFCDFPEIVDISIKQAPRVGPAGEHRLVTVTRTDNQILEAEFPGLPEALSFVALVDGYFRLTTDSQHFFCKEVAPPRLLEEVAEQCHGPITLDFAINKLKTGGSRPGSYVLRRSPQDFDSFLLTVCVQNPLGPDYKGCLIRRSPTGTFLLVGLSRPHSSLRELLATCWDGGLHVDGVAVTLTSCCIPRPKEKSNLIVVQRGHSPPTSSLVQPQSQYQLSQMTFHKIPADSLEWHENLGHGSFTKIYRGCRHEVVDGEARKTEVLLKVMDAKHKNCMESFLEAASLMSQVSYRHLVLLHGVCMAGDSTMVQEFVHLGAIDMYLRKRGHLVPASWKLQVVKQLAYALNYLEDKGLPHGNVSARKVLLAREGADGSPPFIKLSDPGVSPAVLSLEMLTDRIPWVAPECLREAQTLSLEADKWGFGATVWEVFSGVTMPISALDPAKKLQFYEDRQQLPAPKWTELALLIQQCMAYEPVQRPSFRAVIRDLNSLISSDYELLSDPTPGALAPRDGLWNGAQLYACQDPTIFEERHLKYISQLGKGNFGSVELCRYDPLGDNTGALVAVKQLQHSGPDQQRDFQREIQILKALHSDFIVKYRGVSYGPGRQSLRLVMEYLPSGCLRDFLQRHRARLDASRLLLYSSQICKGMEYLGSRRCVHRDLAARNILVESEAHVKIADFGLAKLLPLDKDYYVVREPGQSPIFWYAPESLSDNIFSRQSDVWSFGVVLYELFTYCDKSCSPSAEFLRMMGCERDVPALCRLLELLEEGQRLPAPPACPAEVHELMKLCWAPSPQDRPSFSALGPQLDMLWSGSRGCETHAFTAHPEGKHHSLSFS
Briefly: JAK3 inhibition assay. Type of test: biochemical. Particulars: 2 μM ATP, ELISA read at 450 nm. How it is done:
Compounds were screened for their ability to inhibit JAK3 according to the method described by G. R. Brown, et al, Bioorg. Med. Chem. Lett. 2000, vol. 10, pp 575–579 in the following manner. Into Maxisorb plates, previously coated at 4° C. with Poly (Glu, Ala, Tyr) 6:3:1 then washed with phosphate buffered saline 0.05% and Tween (PBST), was added 2 μM ATP, 5 MM MgCl2, and a solution of compound in DMSO. The reaction was started with JAK enzyme and the plates incubated for 60 minutes at 30° C. The plates were then washed with PBST, 100 μL HRP-Conjugated 4G10 antibody was added, and the plate incubated for 90 minutes at 30° C. The plate was again washed with PBST, 100 μL TMB solution is added, and the plates were incubated for another 30 minutes at 30° C. Sulfuric acid (100 μL of 1M) was added to stop the reaction and the plate is read at 450 nm to obtain the optical densities for analysis to determine Ki values.
Background: An ELISA detects its analyte on a solid surface through an enzyme-linked reagent.

Another test addresses JNK3 (Homo sapiens, UniProt P53779). The test is described as follows: JNK3 inhibition assay (spectrophotometric coupled-enzyme assay). The conditions noted are these: 10 μM ATP, 10 nM activated JNK3. Format: biochemical. As to the method: Compounds were assayed for the inhibition of JNK3 by a spectrophotometric coupled-enzyme assay. In this assay, a fixed concentration of activated JNK3 (10 nM) was incubated with various concentrations of a potential inhibitor dissolved in DMSO for 10 minutes at 30° C. in a buffer containing 0.1 M HEPES buffer, pH 7.5, containing 10 mM MgCl2, 2.5 mM phosphoenolpyruvate, 200 μM NADH, 150 μg/mL pyruvate kinase, 50 μg/mL lactate dehydrogenase, and 200 μM EGF receptor peptide. The EGF receptor peptide is a phosphoryl acceptor in the JNK3-catalyzed kinase reaction. The reaction was initiated by the addition of 10 μM ATP and the assay plate is inserted into the spectrophotometer's assay plate compartment that was maintained at 30° C. The decrease of absorbance at 340 nm was monitored as a function of time. The rate data as a function of inhibitor concentration was fitted to competitive inhibition kinetic model to determine the Ki.

pKi: −log10 of the molar value.

JNK3, sequence (P53779 whole entry, species assumed): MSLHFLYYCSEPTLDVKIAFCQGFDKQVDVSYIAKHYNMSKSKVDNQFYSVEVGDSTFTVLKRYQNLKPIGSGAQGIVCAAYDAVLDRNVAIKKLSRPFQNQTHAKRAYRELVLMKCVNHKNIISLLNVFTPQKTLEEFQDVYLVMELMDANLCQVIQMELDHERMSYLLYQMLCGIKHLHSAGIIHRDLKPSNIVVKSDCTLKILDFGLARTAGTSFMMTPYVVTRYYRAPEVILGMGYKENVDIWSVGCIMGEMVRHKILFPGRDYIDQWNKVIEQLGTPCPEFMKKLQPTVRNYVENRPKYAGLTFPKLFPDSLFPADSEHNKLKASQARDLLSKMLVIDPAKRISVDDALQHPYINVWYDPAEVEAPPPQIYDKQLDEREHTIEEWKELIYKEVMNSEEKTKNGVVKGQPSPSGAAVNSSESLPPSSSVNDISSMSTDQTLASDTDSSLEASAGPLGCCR

As a reminder, the pKi is the Ki on a negative log10 scale, so that one unit is a factor of ten. For `NS(=O)(=O)c1ccc(Nc2nccc(-c3ccc4c(c3)NC(=O)CO4)n2)cc1` [IVa-23], the pKi on JAK3 was greater than 5.30; at JNK3, greater than 6.00.
On to `CN1C(=O)COc2ccc(-c3ccnc(Nc4ccc(S(N)(=O)=O)cc4)n3)cc21` [IVa-24], for which the pKi is greater than 5.30 on JAK3 and greater than 6.00 at JNK3.
